This passage reports IC50 results from patent US8168648B2, “Camptothecin derivatives and uses thereof” (Taiwan Liposome Co., Ltd., priority 2009, dated 2012).

Format in all cases: cell-based
One test concerns HCT-116. The test is described as follows: In vitro cytotoxicity assay (SRB), HCT-116. The following applies: HCT-116 (Human colon cancer), 72 hours of incubation.
A further test relates to HT-29. The test is described as follows: In vitro cytotoxicity assay (SRB), HT-29. The following applies: HT-29 (Human colon cancer), 72 hours of incubation.
A further test deals with MCF-7. The test is described as follows: In vitro cytotoxicity assay (SRB), MCF-7. The following applies: MCF7, MCF-7 (Human breast cancer), 72 hours of incubation.
The subject of a further test is DMS-114. As to the kind of experiment: In vitro cytotoxicity assay (SRB), DMS-114. The following applies: Homo sapiens, DMS-114 (Small cell lung cancer), 72 hours of incubation.
The next test has as its system PC14PE6/AS2. The test is described as follows: In vitro cytotoxicity assay (SRB), PC14PE6/AS2. The following applies: PC14PE6/AS2 (Non-small cell lung cancer), 72 hours of incubation.

In the case of `CC[C@@]1(OC(=O)[C@H](C)O)C(=O)OCc2c1cc1n(c2=O)Cc2cc3c(CN(C)C)c(O)ccc3nc2-1` [S,S-topotecan lactate (U2), S,S-topotecan lactate], the IC50 (commonly the concentration that gives 50% inhibition) in the test on HCT-116 stood at 45 nM; with HT-29, 56 nM; in the test with MCF-7 it was 143 nM; in the test with DMS-114, 26 nM; with PC14PE6/AS2, 74 nM.
For the compound `CC[C@@]1(OC(=O)[C@@H](C)O)C(=O)OCc2c1cc1n(c2=O)Cc2cc3c(CN(C)C)c(O)ccc3nc2-1` [S,R-topotecan lactate (U1), S,R-topotecan lactate], the half-maximal inhibitory concentration (IC50) in the test with HCT-116 was found to be 58 nM; with HT-29, 56 nM; in the test with MCF-7, 194 nM; in the test on DMS-114, 53 nM; with PC14PE6/AS2, 21 nM.
